Laboratory results from article PMC7015960, “Effect of rifampin and itraconazole on the pharmacokinetics of zanubrutinib (a Bruton's tyrosine kinase inhibitor) in Asian and non-Asian healthy subjects” (Cancer Chemotherapy and Pharmacology, 2019).
Where “and” joins values, the source holds several entries; their conditions need not be identical. Equal entries are not always repeated. Where two headings read alike, the source gives them in different places.

Tests used:
[1] = Part A: single-dose PK of 320 mg zanubrutinib alone and with steady-state rifampin (CYP3A induction) in healthy subjects; format: in vivo, human; settings: for CL/F / AUC(0-inf) / Cmax / half-life / Vd/F: geometric mean (CV%); for AUC(0-inf) / Cmax / half-life / Vd/F / Tmax: both sexes, human, plasma; for Vd/F: read-out: Vz/F; for Tmax: median (min–max)
Description: (§1) This was an open-label, parallel-group, fixed-sequence study in healthy male and female subjects conducted in two parts, Part A and Part B. Part A investigated the effect of CYP3A induction by steady-state rifampin on the single-dose PK of 320 mg zanubrutinib, and Part B investigated the effect of CYP3A inhibition by steady-state itraconazole on the single-dose PK of 20 mg zanubrutinib.
(§2) In Part A, participants received a single oral dose of zanubrutinib (320 mg) in the fasted state on Day 1 and Day 10. Oral rifampin (600 mg/day, Rifampin, VersaPharm Inc., Marietta, GA, USA) was administered once daily in the fasted state on Days 3 through 11. In Part B, participants received a single oral dose of zanubrutinib (20 mg) in the fasted state on Day 1 and Day 6. Oral itraconazole (200 mg/day, Sporanox® capsules, Janssen Pharmaceuticals, Titusville, NJ, USA) was administered once-daily approximately 30 min after completing a meal on Days 3, 4, 5, and 7, and in the fasted state on Day 6.
(§3) Serial blood samples were collected with zanubrutinib alone and when combined with rifampin or itraconazole for the measurement of zanubrutinib plasma concentrations. Plasma samples were collected at predose, 0.5, 1, 1.5, 2, 3, 4, 6, 8, 12, 24, 36, and 48 h postdose on Day 1 and Day 10 in Part A and on Day 1 and Day 6 in Part B.
(§4) Plasma concentrations of zanubrutinib were determined using validated high-performance liquid chromatography coupled with tandem mass spectrometry (HPLC–MS/MS) (Xenobiotic Laboratories, NJ, USA). Protein precipitation was utilized to extract the analyte and internal standard from human plasma containing dipotassium ethylenediaminetetraacetic acid (K2EDTA) as anticoagulant. The analytical method utilized a reversed-phase HPLC column (Supelco Ascentis Express C18 20 × 2.1 mm, 2.7 µm) with a gradient flow of 0.1% formic acid in water (Mobile Phase A) and methanol:acetonitrile (1:1) (Mobile Phase B) at a rate of 0.5 mL/min. The analyte and internal standard were detected using an AB Sciex API-4000 LC–MS/MS system equipped with a positive ESI ion detection.
(§5) The calibration range of zanubrutinib in the assay was 1.00 to 1000 ng/mL using a 50 μL aliquot of plasma, with the lower limit of quantification of 1.00 ng/mL.
(§6) Noncompartmental PK analysis was conducted using the Phoenix® WinNolin® software (Version 6.4). PK parameters were derived for zanubrutinib alone and in combination with rifampin or itraconazole, including area under the plasma concentration–time curve (AUC), maximum observed plasma concentration (Cmax), time of the maximum observed plasma concentration (tmax), apparent terminal elimination half-life (t1/2), apparent total oral clearance (CL/F), and apparent volume of distribution during the terminal elimination phase (Vz/F). Log-transformed area under the curve from time 0 extrapolated to time t (AUC0–t), area under the curve from time 0 extrapolated to infinite time (AUC0–∞), and Cmax of zanubrutinib were analyzed using a mixed model for each part of the study, including treatments as a fixed effect and subject as a random effect. Estimates of geometric mean ratios (GMRs) and the corresponding 90% confidence intervals (CIs) were derived for the comparisons of AUC0–∞, and Cmax as follows:
Part A: zanubrutinib coadministration with rifampin (test) versus zanubrutinib alone (reference),

[2] = Part B: single-dose PK of 20 mg zanubrutinib alone and with steady-state itraconazole (CYP3A inhibition) in healthy subjects; format: in vivo, human; settings: for CL/F / AUC(0-inf) / Cmax / half-life / Vd/F: geometric mean (CV%); for AUC(0-inf) / Cmax / half-life / Vd/F / Tmax: both sexes, human, plasma; for Vd/F: read-out: Vz/F; for Tmax: median (min–max)
Description: as §1, §2, §3, §4, §5, §6
Part B: zanubrutinib coadministration with itraconazole (test) versus zanubrutinib alone (reference).

[3] = Safety and tolerability (TEAEs, laboratory, vital signs, QTcF) in healthy subjects, Parts A and B; format: in vivo, human
Text: Treatment-emergent adverse events (TEAEs) are summarized by part, treatment, National Cancer Institute Common Terminology Criteria for Adverse Events (v4.03) grade, and relationship to study drugs (zanubrutinib, rifampin, and itraconazole). The frequency of TEAEs is summarized by part, treatment, and Medical Dictionary for Regulatory Activities (MedDRA) system organ class (SOC) and preferred term. The summary and frequency TEAE tables are presented for all causalities and for those TEAEs considered related to the study drugs.

[4] = cited from earlier work
[5] = system: cytochrome P450 3A (CYP3A); design: method as in unpublished data; settings: human liver microsomes; ref unpublished data; cited from earlier work
[6] = cited from earlier work; remark: listed apart in the source
[7] = 320 mg zanubrutinib with 600 mg rifampin vs alone
[8] = oral, 320 mg zanubrutinib + 600 mg rifampin QD, Day 10
[9] = oral, 320 mg, Asian subjects, Part A Day 1, 320 mg zanubrutinib alone
[10] = oral, 320 mg, Non-Asian subjects, Part A Day 1, 320 mg zanubrutinib alone
[11] = oral, Asian subjects, Part A Day 10, zanubrutinib + rifampicin
[12] = oral, Non-Asian subjects, Part A Day 10, zanubrutinib + rifampicin
[13] = oral, 320 mg zanubrutinib + 600 mg rifampin QD
[14] = oral, 320 mg zanubrutinib alone
[15] = zanubrutinib in combination with rifampin versus zanubrutinib alone
[16] = 20 mg zanubrutinib with 200 mg itraconazole vs alone
[17] = oral, 20 mg zanubrutinib + 200 mg itraconazole QD, Day 6
[18] = oral, 20 mg, Asian subjects, Part B Day 1, 20 mg zanubrutinib alone
[19] = oral, 20 mg, Non-Asian subjects, Part B Day 1, 20 mg zanubrutinib alone
[20] = oral, Asian subjects, Part B Day 6, zanubrutinib + itraconazole
[21] = oral, Non-Asian subjects, Part B Day 6, zanubrutinib + itraconazole
[22] = oral, 20 mg zanubrutinib + 200 mg itraconazole QD
[23] = zanubrutinib in combination with itraconazole versus zanubrutinib alone
[24] = patients with B-cell malignancies

C=CC(=O)N1CCC([C@@H]2CCNc3c(C(N)=O)c(-c4ccc(Oc5ccccc5)cc4)nn32)CC1 [zanubrutinib, Zanubrutinib]
CL/F ([1]; 320 mg zanubrutinib + 600 mg rifampin QD): 1249 L/h and 1249 (43) L/h | PK parameters, Asian versus non-Asian subjects ([1]; 320 mg zanubrutinib alone on Day 1 and with 600 mg rifampin on Day 10): comparable between Asian and non-Asian subjects | CL/F ([1]; 320 mg zanubrutinib alone): 93 L/h and 93 (36) L/h | decrease of AUC0–∞ on coadministration with rifampin [1, 7]: 13.5 fold | decrease of Cmax on coadministration with rifampin [1, 7]: 12.6 fold | AUC(0-inf) [1, 8]: 261 ng·h/mL | Cmax [1, 8]: 42 ng/mL | Cmax ([1]; oral, 320 mg, 320 mg zanubrutinib alone, Day 1): 532 ng/mL | AUC(0-inf) [1, 9]: 3460 ng·h/mL | Cmax [1, 9]: 543 ng/mL | AUC(0-inf) [1, 10]: 3410 ng·h/mL | Cmax [1, 10]: 525 ng/mL | AUC(0-inf) [1, 11]: 213 ng·h/mL | Cmax [1, 11]: 41 ng/mL | AUC(0-inf) [1, 12]: 293 ng·h/mL | Cmax [1, 12]: 43 ng/mL | half-life [1, 13]: 4.8 h | Vd/F [1, 13]: 8660 L | Tmax [1, 13]: 2 h | half-life [1, 14]: 6.8 h | Vd/F [1, 14]: 914 L | Tmax [1, 14]: 2 h | AUC(0-inf) ([1]; po, 320 mg, 320 mg zanubrutinib alone, single oral dose, fasted, Day 1): 3520 ng·h/mL | AUC0–∞ geometric ratio of adjusted means (90% CI) [1, 15]: 7.4% and 7.4 (6.0, 9.1) % | Cmax geometric ratio of adjusted means (90% CI) [1, 15]: 7.9% and 7.9 (6.6, 9.5) % | CL/F ([2]; 20 mg zanubrutinib + 200 mg itraconazole QD): 29 (31) L/h | PK, Asian versus non-Asian subjects ([2]; 20 mg zanubrutinib alone on Day 1 and with 200 mg itraconazole on Day 6): comparable between Asian and non-Asian subjects | CL/F ([2]; 20 mg zanubrutinib alone): 109 (29) L/h | increase of AUC0–∞ on coadministration with itraconazole [2, 16]: 3.8 fold and < 4 fold | increase of Cmax on coadministration with itraconazole [2, 16]: 2.6 fold | AUC(0-inf) [2, 17]: 693 ng·h/mL | Cmax [2, 17]: 122 ng/mL | Cmax ([2]; oral, 20 mg, 20 mg zanubrutinib alone, Day 1): 48 ng/mL | AUC(0-inf) [2, 18]: 174 ng·h/mL | Cmax [2, 18]: 50 ng/mL | AUC(0-inf) [2, 19]: 192 ng·h/mL | Cmax [2, 19]: 46 ng/mL | AUC(0-inf) [2, 20]: 694 ng·h/mL | Cmax [2, 20]: 124 ng/mL | AUC(0-inf) [2, 21]: 693 ng·h/mL | Cmax [2, 21]: 120 ng/mL | half-life [2, 22]: 4.3 h | Vd/F [2, 22]: 178 L | Tmax [2, 22]: 2 h | Vd/F ([2]; oral, 20 mg zanubrutinib alone): 341 L | half-life ([2]; oral, 20 mg zanubrutinib alone, terminal phase may not be adequately characterized): 2.2 h | Tmax ([2]; oral, 20 mg zanubrutinib alone): 1.5 h | AUC(0-inf) ([2]; po, 20 mg, 20 mg zanubrutinib alone, single oral dose, fasted, Day 1): 184 ng·h/mL | AUC0–∞ geometric ratio of adjusted means (90% CI) [2, 23]: 378% and 378 (344, 415) % | Cmax geometric ratio of adjusted means (90% CI) [2, 23]: 257% and 257 (226, 291) % | overall incidence of TEAEs ([3]; both Part A and Part B): less than 30% | severity of TEAEs / SAEs / discontinuation ([3]; both parts, NCI CTCAE v4.03): no subject reported a TEAE higher than Grade 2 or an SAE, and no subject discontinued due to a TEAE | QTcF ([3]; during the study): No subject had a QTcF value > 450 ms or an increase from baseline in QTcF of > 60 ms | tolerability ([3]; single doses of 320 mg and 20 mg zanubrutinib alone or with 600 mg rifampin / 200 mg itraconazole, healthy subjects): well tolerated | mean half-life ([4]; patients with B-cell malignancies, PK generally assessed only for 8 h post-dose): 2 to 4 h | tolerability ([4]; patients with B-cell malignancies, total daily doses 40 to 320 mg): generally well tolerated | accumulation after repeated dosing [4, 24]: minimal accumulation | time of Cmax after oral dosing [4, 24]: approximately 2 h | dose dependence of exposure ([4]; total daily doses of 40–320 mg): increased in a dose-proportional manner | pathway of oxidative metabolism [5]: largely mediated through the cytochrome P450 3A (CYP3A) pathway

C=CC(=O)N1CCC[C@@H](n2nc(-c3ccc(Oc4ccccc4)cc3)c3c(N)ncnc32)C1 [ibrutinib]
increase in AUC with ketoconazole [6]: 24 fold

CC#CC(=O)N1CCC[C@H]1c1nc(-c2ccc(C(=O)Nc3ccccn3)cc2)c2c(N)nccn12 [acalabrutinib]
decrease in AUC with rifampin [6]: 77% | increase in AUC with itraconazole [6]: 5.1 fold
